In patent US9822147B2, “Methods of treating ophthalmic diseases using NPR-B agonists” (priority 2009, dated 2017):
Numbered stars: 1 amine (or outer) side, 2 acyl side, 3 side chain; on linkers, the order of the positions; unused ones are H or OH. Square brackets hold non-standard residues; d marks the D form. Ends that are not written are not given here. Peptide text beside a SMILES is read from it. * marks the point of attachment. Sni = (S)-nipecotic acid, O=C([C@H]1CCCN([*:1])C1)[*:2]; Pro(4R-NH2) = N[C@H]1CN[C@H](C(=O)O)C1; X9 = CN(C)CC[C@@H](N[*:1])C(=O)[*:2]; X2 = O=C([C@H]1CCCN([*:1])C1)[*:2]; X1 = CCCCCCCCN1CCC[C@H](C(=O)*)C1; dDap(Me2) = CN(C)C[C@@H](N)C(=O)O; Hyp = O=C(O)[C@@H]1C[C@@H](O)CN1; Aoc(2) = CCCCCC[C@H](N)C(=O)O; NMeL = CN[C@@H](CC(C)C)C(=O)O; Octanoyl = CCCCCCCC(=O)*; AEEA = NCCOCCOCC(=O)O; Occ = octanoic acid

Each molecule was assayed on rabbit eyes (assay: Efficacy in the rabbit: intraocular pressure (IOP) after a single topical ocular drop). Conditions: dose 300 ug topical ocular, single 30 μL drop, up to 4 hr post dose, 1% as suspension (+) or solution (++) per mark on label.
Type: in vivo
Description: A single 30 μL drop of a test item formulation was administered to rabbit eyes (n=8 to 10).
Intraocular pressure (IOP) was assessed in each eye at 0 hr, just prior to dosing, and again hourly for up to 4 hr post dose. The efficacy of a given formulation was determined based on the difference between the pretreatment TOP readings at 0 hr and the post treatment readings. A maximum percent reduction in IOP greater than 15% was noted by the “+” symbol. A maximum IOP reduction of less than 15% was assigned the “−” symbol.

| Molecule | RIOP, maximum percent reduction in IOP |
| --- | --- |
| CCCCCCCC(=O)N1CCC[C@H](C(=O)N[C@@H](Cc2ccccc2)C(=O)N[C@H](CC(C)C)C(=O)N[C@@H](CC(C)C)C(=O)N2C[C@H](O)C[C@H]2C(=O)N(C)[C@@H](CC(C)C)C(=O)N[C@@H](CC(=O)O)C(=O)N[C@@H](CCCNC(=N)N)C(=O)N[C@H](C(N)=O)[C@@H](C)CC)C1 [JAL-1041, Occ-Sni-Phe-leu-Leu-Hyp-Nml-Asp-Arg-Ile-NH2] (HELM PEPTIDE1{[CCCCCCCC(=O)[*:2]].[O=C([C@H]1CCCN([*:1])C1)[*:2]].F.[dL].L.[Hyp].[meL].D.R.I.[am]}$$$$V2.0) | + (+ IOP reduction >15%) |
| CCCCCCCC(=O)N[C@H](C)C(=O)N[C@@H](Cc1ccccc1)C(=O)N[C@H](CC(C)C)C(=O)N[C@@H](CC(C)C)C(=O)N1C[C@H](O)C[C@H]1C(=O)N(C)[C@@H](CC(C)C)C(=O)N[C@@H](CC(=O)O)C(=O)N[C@@H](CCCNC(=N)N)C(=O)N[C@H](C(N)=O)[C@@H](C)CC [JAL-1042, Occ-ala-Phe-leu-Leu-Hyp-Nml-Asp-Arg-Ile-NH2] (HELM PEPTIDE1{[CCCCCCCC(=O)[*:2]].[dA].F.[dL].L.[Hyp].[meL].D.R.I.[am]}$$$$V2.0) | − (− IOP reduction <15%) |
| CCCCCCCCN1CCC[C@H](C(=O)N[C@@H](Cc2ccccc2)C(=O)N[C@H](CN(C)C)C(=O)N[C@@H](CC(C)C)C(=O)N2C[C@H](N)C[C@H]2C(=O)N(C)[C@@H](CC(C)C)C(=O)N[C@@H](CC(=O)O)C(=O)N[C@@H](CCCNC(=N)N)C(=O)N[C@H](C(N)=O)[C@@H](C)CC)C1 [JAL-1369, Oct-Sni-Phe-dap(Me2)-Leu-Tap-Nml-Asp-Arg-Ile-NH2] (X1-F[dDap(Me2)]L[Pro(4R-NH2)][NMeL]DRI-NH2) | + (+ IOP reduction >15%) |
| CCCCCCCCN1CCC[C@H](C(=O)N[C@@H](Cc2ccccc2)C(=O)N[C@H](CN(C)C)C(=O)N[C@@H](CC(C)C)C(=O)N2C[C@H](O)C[C@H]2C(=O)N(C)[C@@H](CC(C)C)C(=O)N[C@@H](CC(=O)O)C(=O)N[C@@H](CCCNC(=N)N)C(=O)N[C@H](C(N)=O)[C@@H](C)CC)C1 [JAL-1429, Oct-Sni-Phe-dap(Me2)-Leu-Hyp-Nml-Asp-Arg-Ile-NH2] (HELM PEPTIDE1{[CCCCCCCCN1CCC[C@H](C(=O)[*:2])C1].F.[CN(C)C[C@@H](N[*:1])C(=O)[*:2]].L.[Hyp].[meL].D.R.I.[am]}$$$$V2.0) | + (+ IOP reduction >15%) |
| Occ-Sni-Phe-dap(Me2)-Leu-Hyp-Nml-Val-Arg-Ile-NH2 ([Occ][Sni]FXL[Hyp][NMeL]VRI-NH2; not fully specified (residue 4); printed as Occ-Sni-Phe-dap(Me2)-Leu-Hyp-Nml-Val-Arg-Ile-NH2) [JAL-1400] | + (+ IOP reduction >15%) |

What follows are molecules tested against T1, NPR-B (Homo sapiens, UniProt P20594) (assay: NPR-B induced production of cyclic GMP in human glaucoma trabecular meshwork cells (GTM-3)). Conditions: group by EC50 and Emax (CNP = 100%); Table 4; read-out: Activity (group), NPR-B activation assayed with GTM-3 cells.
T1 construct: a functional assay using endogenously NPR-B expressing GTM-3 cells; endogenous in cells; host or cells: GTM-3 (human glaucoma trabecular meshwork cells)
T1 sequence (P20594 23-1047): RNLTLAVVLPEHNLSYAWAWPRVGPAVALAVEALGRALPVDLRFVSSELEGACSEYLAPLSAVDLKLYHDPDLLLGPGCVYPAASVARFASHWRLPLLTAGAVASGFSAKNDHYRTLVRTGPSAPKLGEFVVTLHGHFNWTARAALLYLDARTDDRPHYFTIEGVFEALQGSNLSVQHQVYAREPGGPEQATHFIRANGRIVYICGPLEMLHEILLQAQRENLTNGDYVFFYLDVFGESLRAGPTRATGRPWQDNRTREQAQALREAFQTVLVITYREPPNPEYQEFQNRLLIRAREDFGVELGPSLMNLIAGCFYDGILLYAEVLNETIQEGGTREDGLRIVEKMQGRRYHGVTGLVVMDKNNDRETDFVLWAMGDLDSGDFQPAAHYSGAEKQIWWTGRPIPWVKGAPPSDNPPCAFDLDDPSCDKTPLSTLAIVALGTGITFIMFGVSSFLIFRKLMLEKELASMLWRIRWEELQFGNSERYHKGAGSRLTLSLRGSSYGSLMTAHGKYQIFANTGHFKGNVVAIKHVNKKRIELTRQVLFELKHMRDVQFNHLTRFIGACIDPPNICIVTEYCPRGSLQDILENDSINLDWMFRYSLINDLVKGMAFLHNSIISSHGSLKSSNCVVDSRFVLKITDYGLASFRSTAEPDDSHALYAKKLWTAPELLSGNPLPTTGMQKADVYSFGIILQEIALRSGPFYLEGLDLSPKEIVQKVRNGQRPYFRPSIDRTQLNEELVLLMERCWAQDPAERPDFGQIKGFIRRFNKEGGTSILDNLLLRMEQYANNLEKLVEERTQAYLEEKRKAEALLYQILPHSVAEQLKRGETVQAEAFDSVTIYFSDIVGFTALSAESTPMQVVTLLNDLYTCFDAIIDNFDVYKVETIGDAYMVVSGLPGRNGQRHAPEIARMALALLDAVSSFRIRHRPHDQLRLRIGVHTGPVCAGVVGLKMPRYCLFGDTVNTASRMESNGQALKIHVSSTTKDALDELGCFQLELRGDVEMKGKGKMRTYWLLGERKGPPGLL
Type: cell-based

| Molecule | EC50 [nM] |
| --- | --- |
| CCCCCCCC(=O)N1CCC[C@H](C(=O)N[C@@H](Cc2ccccc2)C(=O)N[C@H](CC(C)C)C(=O)N[C@@H](CC(C)C)C(=O)N2C[C@H](O)C[C@H]2C(=O)N(C)[C@@H](CC(C)C)C(=O)N[C@@H](CC(=O)O)C(=O)N[C@@H](CCCNC(=N)N)C(=O)N[C@H](C(N)=O)[C@@H](C)CC)C1 [JAL-1041, Occ-Sni-Phe-leu-Leu-Hyp-Nml-Asp-Arg-Ile-NH2] (HELM PEPTIDE1{[CCCCCCCC(=O)[*:2]].[O=C([C@H]1CCCN([*:1])C1)[*:2]].F.[dL].L.[Hyp].[meL].D.R.I.[am]}$$$$V2.0) | < 1000 |
| CCCCCCCC(=O)N[C@H](C)C(=O)N[C@@H](Cc1ccccc1)C(=O)N[C@H](CC(C)C)C(=O)N[C@@H](CC(C)C)C(=O)N1C[C@H](O)C[C@H]1C(=O)N(C)[C@@H](CC(C)C)C(=O)N[C@@H](CC(=O)O)C(=O)N[C@@H](CCCNC(=N)N)C(=O)N[C@H](C(N)=O)[C@@H](C)CC [JAL-1042, Occ-ala-Phe-leu-Leu-Hyp-Nml-Asp-Arg-Ile-NH2] (HELM PEPTIDE1{[CCCCCCCC(=O)[*:2]].[dA].F.[dL].L.[Hyp].[meL].D.R.I.[am]}$$$$V2.0) | < 1000 |
| CCCCCCCC(=O)N1CCC[C@H](C(=O)N[C@@H](Cc2ccccc2)C(=O)N[C@H](CCN(C)C)C(=O)N[C@@H](CC(C)C)C(=O)N2C[C@H](O)C[C@H]2C(=O)N(C)[C@@H](CC(C)C)C(=O)N[C@@H](CC(=O)O)C(=O)N[C@@H](CCCNC(=N)N)C(=O)N[C@H](C(N)=O)[C@@H](C)CC)C1 [JAL-1785, Occ-Sni-Phe-dab(Me2)-Leu-Hyp-Nml-Asp-Arg-Ile-NH2] (Octanoyl-[X2]F[X9]L[Hyp][NMeL]DRI-NH2) | < 1000 |
| CCCCCC[C@H](NC(=O)COCCOCCN)C(=O)N1CCC[C@H](C(=O)N[C@@H](Cc2ccccc2)C(=O)N[C@H](CC(C)C)C(=O)N[C@@H](CC(C)C)C(=O)N2C[C@H](O)C[C@H]2C(=O)N(C)[C@@H](CC(C)C)C(=O)N[C@@H](CC(=O)O)C(=O)N[C@@H](CCCNC(=N)N)C(=O)N[C@H](C(N)=O)[C@@H](C)CC)C1 [JAL-1808, H-Adx-Hgl-Sni-Phe-leu-Leu-Hyp-Nml-Asp-Arg-Ile-NH2] (H-[AEEA][Aoc(2)][X2]F[dL]L[Hyp][NMeL]DRI-NH2) | < 1000 |
